According to patent US7799810B2, “Organic compounds” (Novartis AG, priority 2006, dated 2010):

Columns and labels:
[1] = system: spleen cells of nu/nu Balb/c mice; assay: B cell proliferation assay (anti-IgM stimulated spleen cells); assay type: cell-based; conditions: anti-mouse IgM 5 μg/ml, 3 days, [3H] thymidine incorporation
Description: B cell proliferation assay. A spleen cell suspension of nu/nu Balb/c mice is prepared and adjusted to 2×10^6 cells/ml in complete Iscoves Medium followed by the addition of 10 μg/ml monoclonal anti-mouse IgM antibody (clone b-7-6). Compounds to be rested are dissolved in DMSO at 10 mM and diluted in complete Iscoves Medium. […] Plates are incubated for 3 days at 37° C. and 5% CO2. Cell proliferation is measured by incorporation of [^3H] thymidine following a 16 hours pulse.

[2] = system: spleen cells from CBA and BALB/c mice; assay: Mixed lymphocyte reaction (two-way MLR); assay type: cell-based; conditions: Mus musculus, four days of incubation, 3H-thymidine incorporation
Description: Mixed lymphocyte reaction (MLR). A two-way MLR is performed according to standard procedures. Briefly, spleen cells from CBA and BALB/c mice (1.6×10^5 cells from each strain per well in flat bottom tissue culture microtiter plates, 3.2×10^5 in total) are incubated in RPMI medium containing 10% fetal calf serum, 100 U/ml penicillin, 100 μg/ml streptomycin, 50 μM 2-mercaptoethanol and serially diluted compounds to be tested. After four days of incubation 1 μCi [^3H] thymidine is added to the cultures. Cells are harvested after an additional five-hour incubation period, and incorporated ^3H-thymidine is determined according to standard procedures. […] In this assay, the compounds of formula I have ICsovalues ranging from 20 nM to 200 nM.

Human PI3K delta = biological target: T1, Human PI3K delta (Homo sapiens, UniProt O00329); assay: Cellular PI3K delta assay (Akt phosphorylation in transfected Rat-1 cells); assay type: cell-based; conditions: Rat-1 cells transfected with human PI3K delta CaaX construct, phospho Akt ELISA; read-out: IC50 PI3K delta-dependent Akt phosphorylation
T1 construct: fused on or other part: CaaX box (isoprenylation / membrane-targeting signal) added at the C-terminal end
T1 sequence (O00329 1-1044): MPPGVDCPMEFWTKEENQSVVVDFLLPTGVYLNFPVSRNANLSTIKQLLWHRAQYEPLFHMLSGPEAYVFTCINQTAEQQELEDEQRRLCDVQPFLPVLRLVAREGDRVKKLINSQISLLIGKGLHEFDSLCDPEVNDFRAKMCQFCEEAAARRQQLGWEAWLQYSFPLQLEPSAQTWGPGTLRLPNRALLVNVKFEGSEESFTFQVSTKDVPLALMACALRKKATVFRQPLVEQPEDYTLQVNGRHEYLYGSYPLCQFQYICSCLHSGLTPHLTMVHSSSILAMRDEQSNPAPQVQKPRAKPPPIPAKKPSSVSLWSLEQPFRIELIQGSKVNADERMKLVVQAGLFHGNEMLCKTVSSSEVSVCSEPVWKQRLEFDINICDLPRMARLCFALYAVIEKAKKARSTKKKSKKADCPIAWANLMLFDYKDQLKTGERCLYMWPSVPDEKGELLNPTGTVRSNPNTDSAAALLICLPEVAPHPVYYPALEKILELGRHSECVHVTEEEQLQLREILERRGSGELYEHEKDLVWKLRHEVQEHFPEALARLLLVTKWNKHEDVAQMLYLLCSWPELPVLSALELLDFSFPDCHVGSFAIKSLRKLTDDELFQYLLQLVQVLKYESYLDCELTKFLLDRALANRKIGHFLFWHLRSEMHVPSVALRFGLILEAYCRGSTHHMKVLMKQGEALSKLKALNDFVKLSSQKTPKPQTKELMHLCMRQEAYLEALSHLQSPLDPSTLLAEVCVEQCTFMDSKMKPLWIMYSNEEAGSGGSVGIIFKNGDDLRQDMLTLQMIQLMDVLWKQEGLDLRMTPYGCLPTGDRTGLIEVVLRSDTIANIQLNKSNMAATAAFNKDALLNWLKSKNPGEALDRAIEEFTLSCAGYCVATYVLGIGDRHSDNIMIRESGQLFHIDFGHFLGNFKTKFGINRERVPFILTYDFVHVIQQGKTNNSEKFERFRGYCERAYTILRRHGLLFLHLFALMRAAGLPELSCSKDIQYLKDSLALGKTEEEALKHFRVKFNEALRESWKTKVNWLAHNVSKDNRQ
Excerpt: Cellular PI3K delta assay. Rat-1 cells are transiently transfected with a human PI3K delta construct (pcDNA3 PIK3 delta containing a CaaX box at the C-terminal end) using the FUGENE transfection kit. The CaaX box signals for the attachment of an isoprenoid moiety which activates PI3K delta by targeting it to intracellular membranes/the plasma membrane. Subsequent, PI3K delta-dependent Akt phosphorylation is quantified in presence and absence of compounds to be tested using the phospho Akt ELISA kit from R&D Systems.

PI3K α, β or γ isoform = assay: Selectivity for the δ isoform by corresponding assay using the corresponding PI3K isoform; assay type: biochemical; conditions: δ versus α
Description: PI3K delta enzyme assay based on Scintillation Proximity Assay (SPA) technology. Human PI3K delta is expressed as a recombinant protein in insect cells. PI3K delta activity is assayed by measuring the phosphorylation of phosphatidylinositol (PI) using a scintillation proximity assay. Briefly, the kinase reaction is performed in a final volume of 50 μl/well. The final concentrations of ATP and PI in the assay are 5 μM and 6 μg/ml, respectively. The reaction is started by the addition of PI3K delta and terminated by the addition of 50 μl Wheatgerm agglutinin SPA beads after 90 minutes of incubation at room temperature.

IC50 [2]: 26 nM
IC50 (Human PI3K delta): 22 nM
selectivity for the δ isoform over the α, β or γ isoform (ratio of IC50 values) (PI3K α, β or γ isoform): at least 10 fold
Compound: Cc1cc(NC(=O)CCNC(=O)Nc2nc(C)c(-c3ccc(-n4cccn4)cc3)s2)no1 [Example 2, N-(5-Methyl-isoxazol-3-yl)-3-{3-[4-methyl-5-(4-pyrazol-1-yl-phenyl)-thiazol-2-yl]-ureido}-propionamide]
IC50 [1]: 15 nM
